According to article PMC12973313 (Chemical Science, 2026):
Where two headings read alike, the source gives them in different places.

How the values were obtained:
[1] = Plasma protein binding, equilibrium dialysis; format: in vitro ADME, human
Description: This allows an assessment of the free drug concentration available to distribute into the tissues and interact with the target. The extent to which a compound binds to the constituents of blood plasma can influence drug distribution. […] page 10: In vitro Absorption, Distribution and Metabolism studies General note: These studies were performed by Contract Research Organisation (CRO) Pharmaron. The methodology provided within the ESI is published within the express permission of this organisation. The percentage of a compound recovered during the […] limitations such as unintended potential non-specific binding events to experimental equipment, solubility issues, etc. Protein Binding measurements in human plasma by using equilibrium dialysis: The fraction unbound in human plasma (P-KB, Ltd People's hospital of Shandong) was measured using 96-well Equilibrium Dialysis Plate (HTDialysis LLC, Gales Ferry, CT). Human plasma containing 5 μM test compound was dialysed against dialysis buffer (PBS, pH 7.4) with initial samples taken to allow for assessment of plasma stability and recovery before the plate was incubated for 6 hours at 37°C at 5% CO2. Samples were removed at 6 hours, and all samples were matrix matched and quenched with acetonitrile containing internal standard. Samples were centrifuged at 3,220g for 30 minutes to precipitate protein and enable sampling of supernatant prior to appropriate dilution for liquid chromatography mass-spectrometry (LC-MS/MS) analysis. Samples were analysed using a Shimadzu Nexera LC Binary Gradient LC-30AD (Shimadzu Inc, Kyoto), coupled to a Sciex 6500+ (AB Inc., Illinois). Separation was achieved using a XSelect HSS T3 (2.5μm, 2.1 x 50 mm) (Waters Ltd., Wilmslow) column at a temperature of 40°C and a binary mobile phase gradient at a flow rate of 0.8 mL/min. Initial LC conditions comprised of […] was ramped to 98% B at 0.5 min, held for 0.4 min and then immediately returned to initial conditions. Sample analysis was by electrospray ionisation in combined with multiple reaction monitoring in positive ionisation mode. The ionisation voltage was +5500 V. Kinetic Solubility Determination in PBS pH 7.4: The stock solutions of test and control compounds were prepared in DMSO at 10 mM. From […] These solutions were then shaken at 1100 rpm for 2 hours at 25°C. Following incubation, the samples were filtered using a vacuum manifold. The filtrate was analysed and quantified against a standard of known concentration using liquid chromatography mass- spectrometry (LC-MS/MS). Samples were analysed using a Shimadzu Nexera LC Binary Gradient LC-30AD (Shimadzu Inc, Kyoto), coupled to a Sciex 4500 mass spectrometer (AB Inc., Illinois). Separation of […] Wilmslow) at a temperature of 40°C and a binary mobile phase gradient at a flow rate of 0.8 mL/min. […] This was ramped to 98% solvent B at 0.5 minutes, held for 0.4 minutes and then immediately returned to initial conditions. Sample analysis was by electrospray ionisation combined with multiple reaction monitoring in positive ion mode. The ionspray voltage was […]. 10

[2] = Metabolic stability in liver microsomes; format: in vitro ADME, mouse
Description: Following this, the metabolic stability of 9 was determined against mouse, rat, and human liver microsomes. […] Within this assay the stability of the intact parent compound is monitored with respect to time, during incubation at 37 °C in the presence and absence of the co-factor NADPH – required for cytochrome p450 activity.
Metabolic Stability in Rat, Mouse and Human Liver Microsomes:
The metabolic stability of compounds at a concentration of 1 µM, in rat, mouse and human liver microsomes (BD Gentest, Franklin Lakes NJ) was measured following incubation with […]
(NADPH) at 37 °C. Aliquots of each incubation were removed at 0.5, 5, 15, 30 and 60 minutes. The reaction was stopped by the addition of cold acetonitrile containing analytical […]
Samples were then centrifuged at 3,220 g for 40 minutes. The supernatant was aliquoted and added to ultra-pure H2O in a 1:1 ratio in preparation for LC-MS/MS analysis.
Incubations were conducted in duplicate; control incubations (substituting PBS for NADPH) were conducted simultaneously.
Samples were analysed using a Shimadzu Shimadzu Nexera LC Binary Gradient LC-30AD (Shimadzu Inc, Kyoto), coupled to a Sciex 5500 mass spectrometer (AB Inc., Illinois) for rat and mouse microsomes and a Sciex 6500+ for human microsomes. Separation achieved using an XSelect HSS T3 column (2.5µm, 50 x 2.1 mm) (Waters Ltd., Wilmslow) at a temperature of 40°C and a binary mobile phase gradient at a flow rate of 0.7 mL/min. Initial […]
(0.1% formic acid in acetonitrile).
0.5 minutes and then immediately returned to initial conditions. Sample analysis was by electrospray ionisation combined with multiple reaction monitoring in positive ion mode.
The ionspray voltage was 5500V.
Bi-directional Permeability in Caco-2 Cell Line: […]

[3] = 1H NMR DOSY, DMSO-d6 0.5% H2O, 112 mM, 298 K; cited from earlier work

For `O=C(Nc1ccc(C(F)(F)F)cc1)N[C@H](Cc1ccccc1)C(=O)O` [SSA 9], the “% Bound” value ([1]; human plasma, 5 µM, 6 hours, 37 °C) was 99.73%, the “% Unbound” value ([1]; human plasma, 6 hours) was 0.3% and the “% Stability / % Remaining at 6 hr” value ([1]; human plasma, 6 hr) was 98.85%. The “% Recovery” value ([1]; human plasma, after 6 hours) was 98.3%, the recovery at 6 h, 5 µM ([1]; human, human plasma, pH 7.4, human plasma, after 6 hours) was 98.3% and the remaining at 6 h, 5 µM ([1]; human, plasma, human plasma, 6 hr, read-out: % Stability / % Remaining at 6 hr) was 98.9%. For the same compound, the fraction unbound at 6 h, 5 µM ([1]; human, plasma, pH 7.4, human plasma, 5 µM, 6 hours, 37 °C, read-out: % Bound (converted)) was 0.003, the fraction unbound at 6 h, 5 µM ([1]; human, plasma, pH 7.4, human plasma, 6 hours, read-out: % Unbound) was 0.0027 and the microsomal CLint at 1 µM ([2]; liver microsomes, mouse microsomes) was less than 7.5 µL/min/mg. For the same compound, the “Hepatic Extraction Ratio (ER)” value ([2]; mouse) was less than 0.26, the “Predicted Hepatic CLH” value ([2]; mouse) was less than 23.07 mL/min/kg and the “In vitro t1/2” value ([2]; mouse, 1 µM, 0.5 mg protein/mL) was greater than 184.78 min. The “Remaining percentage (%) 0.5 min” value ([2]; mouse, +Cofactors) was 100.00%, the “Remaining percentage (%) 5 min” value ([2]; mouse, +Cofactors) was 101.43% and the “Remaining percentage (%) 15 min” value ([2]; mouse, +Cofactors) was 97.80%. The “Remaining percentage (%) 30 min” value ([2]; mouse, +Cofactors) was 99.51%, the “Remaining percentage (%) 60 min” value ([2]; mouse, +Cofactors) was 99.55% and the “Remaining percentage (%) 0.5 min” value ([2]; mouse, -Cofactors) was 100.00%. For the same compound, the “Remaining percentage (%) 60 min” value ([2]; mouse, -Cofactors) was 101.52%, the half-life at 1 µM ([2]; mouse, liver microsomes, mouse, 1 µM, 0.5 mg protein/mL, read-out: In vitro t1/2) was greater than 185 min and the CLint scaled at 1 µM ([2]; mouse, liver microsomes, read-out: Scale-up CLint) was less than 31 mL/min/kg.
For `O=C(O)CNC(=O)Nc1ccc(C(F)(F)F)cc1` [SSA 1], the “dH (nm)” value [3] is listed as 1.3 (ref. [30]) nm.
